From patent publication US10995070B2, “Acetyl-CoA carboxylase modulators” (Monsanto Technology LLC, priority 2013, dated 2021)

Legend:
[1] = biological target: Ustilago maydis acetyl CoA carboxylase (ACCase) (Ustilago maydis, UniProt A0A0D1DYD5); experiment: ACCase enzymatic assay (coupled PK/LDH, NADH OD340); type: biochemical; conditions: read-out: ACCase Inhibitory Activity IC50
Experimental: Ustilago maydis acetyl CoA carboxylase (ACCase) was cloned, expressed, and purified as described (Weatherly et al, Biochem. J., 2004) and the test compounds were tested in a 96-well plate format. Primary in vitro screening consisted of obtaining dose response data at 100, 33, 10, and 1 μM inhibitor. Actives in the primary screen were re-tested to establish IC50 values.
Direct detection of the conversion of acetyl CoA to malonyl CoA by ACCase was not feasible, but during this process ATP is converted to ADP which allowed for detection through a standard reaction coupling with ADP recycling to the oxidation of NADH. Thus, ACCase activity was measured via kinetic OD340 measurements of the conversion of NADH to NAD in a coupled reaction involving the conversion of phosphoenolpyruvate (PEP) to lactate.
The complete 200 ul reaction mixture contained 52.5 mM HEPES (pH8), 2.625 mM MgCl2, 1 mM ATP, 0.525 mM DTT, 11 mM NaHCO3, 1% DMSO with or without inhibitor, 1× pyruvate kinase/lactate dehydrogenase (PK/LDH), 0.3 mM NADH, 0.5 mM PEP, and 5 μg ACCase. The reactions were incubated at 30° C. for 10 minutes and then initiated by the addition of 0.33 mM acetyl CoA. The initiated reactions were read immediately via plate reader at OD340 and kinetic readings were acquired every 20 s for 15 minutes while keeping the temperature at 30° C.
A slope of the kinetic curve was determined by using the 2 to 7 minute data which was then calculated as percent inhibition relative to the no inhibitor control.
The primary screens were conducted in duplicate and the IC50's conducted in triplicate. Averages were reported along with standard deviation calculation to generate error bars.
Each plate contained its own controls and consisted of a DMSO only control, 5-fold titration series of soraphen from 2 μM to 3.2 nM, and an ADP coupled reaction control. […]
A slope of the kinetic curve was determined by using the 2 to 7 minute data which was then calculated as percent inhibition relative to the no inhibitor control. Those compounds which had no significant PK/LDH inhibition at or above the IC50 in the ACCase assay, were considered to be valid modulators of only ACCase.

[2] = system: Collectotrichum graminicola; experiment: Fungal growth inhibition assay, C. graminicola; type: cell-based; conditions: Colletotrichum graminicola, 48 h
Experimental: (§1) Spores were isolated from previously sub-cultured plates of Botrytis cinerea, Phytophthora capsici, Fusarium moniliforme, Fusarium viguliforme, Collectotrichum graminicola, and Diplodia maydis. All spores were filtered and collected in a sterile glass bowl to isolate the spores from the mycelia. The isolation and sub-culture plate condition for each pathogen is described below.
Spore isolation for C. graminicola: A 1-2 week old oatmeal agar (pre-mix) plate was removed from 26° C. incubator with a light/dark 12 hour cycle and the mycelia were treated with 10-15 ml of filter sterilized distilled water. The mycelia were scraped to re-suspend the spores. The spores were then collected in a sterile filter bowl containing a piece of sterile cheesecloth and poured into a conical tube.
(§2) After spore isolation, pathogen spores were counted on a hemocytometer to calculate the spores/ml. In 17% V8 liquid media containing 3 g/L CaCO3, isolated spores were diluted to individual concentrations based on the growth curves at 48 hours of each pathogen. The spore concentrations for each pathogen were as follows: B. cinerea—10,000 sp/ml; P. capsici—300 sp/ml; F. monliforme—500 sp/ml; F. virguliforme—500 sp/ml; C. graminicola—3,000 sp/ml; and D. maydis—3,000 sp/ml.
(§3) Chemistry stocks were dissolved in DMSO at 2.5 mg/ml. Chemistry was diluted in a 96-well stock plate in five-fold dilutions to obtain a final concentration of 50, 10, and 2 ppm in vitro. The final concentration of the positive control after the five-fold dilutions was as follows: soraphen—0.5, 0.1, and 0.02 ppm. Negative controls on each plate included 2% DMSO, water containing spores and media, and a blank for background subtraction.
(§4) In a 96-well plate the spore solution, chemistries, and controls were combined to make the final solution concentrations mentioned above. Upon addition of the chemistry, an OD600 reading was done to assess chemical precipitation. The 96-well plates were incubated in plastic tubs containing wet paper towels under the following conditions, 25° C. in the dark for P. capsici and B. cinerea or 26° C. with light/dark cycle for C. graminicola, D. maydis, F. virguliforme, F. monliforme. Plate readings were repeated at 24 and 48 hrs. Visual ratings were performed at 24 and 48 hrs to check for precipitation and confirm efficacy. Visual and OD600 ratings of the chemistry at 48 hours were compared to the 2% DMSO control to determine the percent of pathogen growth inhibition.

Saccharomyces cerevisiae = experiment: Yeast growth inhibition assay; type: cell-based; conditions: read-out: S. cerevisiae % growth inhibition
Experimental: Yeast cells (Ade2 strain) were grown in liquid YPD (1% yeast extract, 2% peptone, 2% dextrose) for 16 hours at 30° C. from previously sub-cultured plates of Saccharomyces cerevisiae. The OD600 of the overnight culture was checked via spectrophotometer and diluted to a concentration of 2×10^4 cells/ml.
Chemistry stocks were dissolved in DMSO to a concentration of 10 mM. Chemistry stocks were further diluted in a 96-well stock plate to obtain final concentrations of […] in 1% DMSO. The final concentrations of the soraphen positive control were 400, 40, and 3.2 nM. The negative controls on each plate included a background subtraction control containing yeast and 1% DMSO (without chemistry) and a second contamination control containing YPD (with no yeast) and 1% DMSO (without chemistry).
98 μl liquid YPD was added to 2 μl diluted stock of DMSO per well and mixed thoroughly. After mixing, 100 μl of the diluted yeast solution was added to bring the final yeast concentration to 1×10^4 cells/ml or 2000 cells per well. An initial spectrophotometric reading at OD600 was conducted on the entire plate and served as the 0 hours time point used to subtract any background. […] […] […] All experiments were conducted in triplicate. Averages were reported along with standard deviation calculation to generate error bars. Each plate contained its own controls and consisted of inoculated+DMSO, non-inoculated+DMSO, and a titration series of soraphen at 400, 40, and 3.2 nM.

Fusarium virguliforme = experiment: Fungal growth inhibition assay, F. virguliforme; type: cell-based; conditions: 48 h
Experimental: as §1
Spore isolation for F. virguliforme: A 2-3 week old PDA (pre-mix) plate containing cefotaxime (100 mg/L) and kanamycin (50 mg/L) was removed from 26° C. incubator with a light/dark 12 hour cycle and the mycelia were treated with 5-10 ml of filter sterilized distilled water. The mycelia were scraped to re-suspend the spores. The spores were then collected in a sterile filter bowl containing a fluted piece of filter paper and poured into a conical tube.
as §2, §3, §4

Diplodia maydis = experiment: Fungal growth inhibition assay, D. maydis; type: cell-based; conditions: 48 h
Experimental: as §1
Spore isolation for D. maydis: A 3-4 week old PDA (pre-mix) plate was removed from 26° C. incubator with a light/dark 12 hour cycle and the mycelia were treated with 6-7 ml of sterile distilled water, scraped into a sterile petri dish, and smashed to open the pycnidia. The spores were then collected in a sterile filter bowl containing a fluted piece of filter paper and poured into a conical tube.
as §2, §3, §4

Sequence of Ustilago maydis acetyl CoA carboxylase (ACCase) (A0A0D1DYD5 1-2185): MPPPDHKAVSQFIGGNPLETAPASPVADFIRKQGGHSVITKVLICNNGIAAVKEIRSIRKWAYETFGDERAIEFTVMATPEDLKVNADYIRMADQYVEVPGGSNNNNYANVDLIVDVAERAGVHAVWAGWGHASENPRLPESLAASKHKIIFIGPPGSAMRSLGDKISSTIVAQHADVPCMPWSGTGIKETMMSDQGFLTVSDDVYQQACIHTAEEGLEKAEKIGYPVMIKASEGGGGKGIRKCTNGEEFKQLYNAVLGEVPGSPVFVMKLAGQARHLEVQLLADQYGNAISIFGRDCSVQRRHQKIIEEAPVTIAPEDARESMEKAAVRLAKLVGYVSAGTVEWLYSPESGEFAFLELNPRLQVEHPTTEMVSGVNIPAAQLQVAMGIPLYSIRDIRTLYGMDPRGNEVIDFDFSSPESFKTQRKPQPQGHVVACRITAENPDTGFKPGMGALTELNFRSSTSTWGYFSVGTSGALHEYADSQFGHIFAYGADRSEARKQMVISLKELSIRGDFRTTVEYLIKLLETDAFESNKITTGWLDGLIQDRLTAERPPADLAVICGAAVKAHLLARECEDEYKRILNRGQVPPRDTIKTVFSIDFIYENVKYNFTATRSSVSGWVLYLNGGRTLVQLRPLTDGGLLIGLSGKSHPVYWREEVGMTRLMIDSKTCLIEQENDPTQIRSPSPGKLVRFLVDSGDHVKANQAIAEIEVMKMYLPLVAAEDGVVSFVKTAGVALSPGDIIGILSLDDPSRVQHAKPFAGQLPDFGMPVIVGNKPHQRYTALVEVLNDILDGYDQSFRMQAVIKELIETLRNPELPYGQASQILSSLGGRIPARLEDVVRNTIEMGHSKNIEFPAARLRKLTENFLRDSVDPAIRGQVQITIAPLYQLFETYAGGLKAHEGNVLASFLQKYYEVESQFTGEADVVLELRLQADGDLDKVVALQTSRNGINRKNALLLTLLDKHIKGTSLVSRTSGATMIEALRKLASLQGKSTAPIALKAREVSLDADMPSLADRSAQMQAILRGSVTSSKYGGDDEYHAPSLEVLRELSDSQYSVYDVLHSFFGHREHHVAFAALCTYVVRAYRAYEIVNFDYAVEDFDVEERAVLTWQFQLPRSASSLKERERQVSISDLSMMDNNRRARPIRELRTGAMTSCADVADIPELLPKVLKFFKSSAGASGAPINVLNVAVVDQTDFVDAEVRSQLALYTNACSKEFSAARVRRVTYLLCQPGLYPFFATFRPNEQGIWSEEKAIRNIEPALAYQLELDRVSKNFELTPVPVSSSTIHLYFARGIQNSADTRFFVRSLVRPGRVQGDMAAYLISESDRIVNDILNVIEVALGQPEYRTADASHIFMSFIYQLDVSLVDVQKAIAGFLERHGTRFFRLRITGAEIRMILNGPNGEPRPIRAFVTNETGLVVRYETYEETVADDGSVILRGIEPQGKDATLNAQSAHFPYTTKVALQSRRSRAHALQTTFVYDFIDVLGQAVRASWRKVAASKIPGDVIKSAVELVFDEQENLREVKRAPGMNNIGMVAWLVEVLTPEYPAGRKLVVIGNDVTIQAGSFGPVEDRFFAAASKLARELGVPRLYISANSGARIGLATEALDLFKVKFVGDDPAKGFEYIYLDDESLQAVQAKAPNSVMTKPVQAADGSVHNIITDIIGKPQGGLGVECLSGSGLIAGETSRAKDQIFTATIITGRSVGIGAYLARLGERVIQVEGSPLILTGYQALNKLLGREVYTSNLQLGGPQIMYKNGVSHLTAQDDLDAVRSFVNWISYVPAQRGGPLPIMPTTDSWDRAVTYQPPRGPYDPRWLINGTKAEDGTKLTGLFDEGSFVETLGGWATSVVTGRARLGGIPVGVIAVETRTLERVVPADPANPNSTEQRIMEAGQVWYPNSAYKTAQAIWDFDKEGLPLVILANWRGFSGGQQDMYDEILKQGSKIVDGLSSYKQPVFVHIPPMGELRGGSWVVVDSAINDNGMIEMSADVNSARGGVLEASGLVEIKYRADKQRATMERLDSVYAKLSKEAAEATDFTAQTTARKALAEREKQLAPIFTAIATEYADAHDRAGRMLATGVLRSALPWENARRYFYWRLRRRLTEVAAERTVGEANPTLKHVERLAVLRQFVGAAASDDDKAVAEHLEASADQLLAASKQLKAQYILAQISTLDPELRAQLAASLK

SMILES | IC50 [1] [µM] | inhibition at 2 ppm [2] [%] | inhibition at 10 ppm [2] [%] | inhibition at 2 ppm (Diplodia maydis) [%] | inhibition at 10 ppm (Diplodia maydis) [%] | further results
O=C(O)COc1ccc(-c2cc(-c3ccccc3)c3ccccc3n2)cc1 [Formula Ia-ii, 2-(4-(4-phenylquinolin-2-yl)phenoxy)acetic acid] | 0.165 | – | – | – | – | –
NC(=O)Cc1ccc(-c2cc(-c3ccccc3)c3ccccc3n2)s1 [Formula Ib-iii, 2-(5-(4-phenylquinolin-2-yl)thiophen-2-yl)acetamide] | 8.18 | 31 | 98 | – | – | inhibition at 50 ppm [2]: 81%; inhibition at 3.7 µM (Saccharomyces cerevisiae; 3.7 μM): 0%; inhibition at 11.1 µM (Saccharomyces cerevisiae; 11.1 μM): 14%; inhibition at 33.3 µM (Saccharomyces cerevisiae; 33.3 μM): 57%; inhibition at 100 µM (Saccharomyces cerevisiae; 100 μM): 99%
CCc1cccc2c(-c3ccccc3)cc(-c3ccc(OCC(N)=O)cc3)nc12 [Formula Ia-iv, 2-(4-(8-ethyl-4-phenylquinolin-2-yl)phenoxy)acetamide] | 8.15 | – | – | – | – | –
COc1cccc2c(-c3ccccc3)cc(-c3ccc(OCC(N)=O)cc3)nc12 [Formula Ia-iii, 2-(4-(8-methoxy-4-phenylquinolin-2-yl)phenoxy)acetamide] | 0.549 | – | – | – | – | –
CO[C@H]1CCCC[C@@H](c2ccccc2)OC(=O)[C@@H](C)[C@@]2(O)O[C@H]([C@@H](C)[C@H](O)[C@H]2OC)[C@@H](C)/C=C/[C@H]1OC [Soraphen, reference compound] | 0.0458 | – | – | – | – | –
O=C(COc1ccc(-c2cc(-c3ccccc3)c3cc(Cl)ccc3n2)cc1)NCCO [Formula Ia-v, 2-(4-(6-chloro-4-phenylquinolin-2-yl)phenoxy)-N-(2-hydroxyethyl)acetamide] | 13 | – | – | – | – | –
CCc1cccc2c(-c3ccccc3)cc(-c3ccc(CC(N)=O)s3)nc12 [Formula Ib-vi, 2-(5-(8-ethyl-4-phenylquinolin-2-yl)thiophen-2-yl)acetamide] | 9.58 | – | – | – | – | –
NC(=O)Cc1ccc(-c2nc3ccccc3c(-c3ccccc3)c2Cl)s1 [Formula Ib-i, 2-(5-(3-chloro-4-phenylquinolin-2-yl)thiophen-2-yl)acetamide] | 1.32 | 44 | 51 | – | – | inhibition at 2 ppm (Fusarium virguliforme): 43%; inhibition at 10 ppm (Fusarium virguliforme): 31%
NC(=O)COc1ccc(-c2cc(-c3ccccc3)c3ccccc3n2)cc1 [Formula Ia-i, 2-(4-(4-phenylquinolin-2-yl)phenoxy)acetamide] | 0.515 | – | – | – | – | –
COc1ccc(-c2cc(-c3ccccc3)c3ccccc3n2)cc1 [Formula IV-i, 2-(4-methoxyphenyl)-4-phenylquinoline] | 21.2 | 35 | 22 | 21 | 44 | –
COc1ccc(-c2cc(-c3ccccc3)c3ccccc3n2)cc1OC [Formula IV-ii, 2-(3,4-dimethoxyphenyl)-4-phenylquinoline] | 7.82 | 34 | 41 | 26 | 34 | –
COC(=O)COc1ccc(-c2cc(-c3ccccc3)c3ccccc3n2)cc1 [Formula IIc-i, methyl 2-(4-(4-phenylquinolin-2-yl)phenoxy)acetate] | – | – | – | 12 | 44 | –
COc1ccc2c(-c3ccccc3)cc(SC(C)C(N)=O)nc2c1 (centres unmarked) [Formula III-i, 2-((7-methoxy-4-phenylquinolin-2-yl)thio)propanamide] | 8.8 | – | – | – | – | –
COC(=O)Cc1ccc(-c2nc3ccccc3c(-c3ccccc3)c2Cl)s1 [Formula IId-ii, methyl 2-(5-(3-chloro-4-phenylquinolin-2-yl)thiophen-2-yl)acetate] | – | – | – | 26 | 30 | inhibition at 2 ppm (Fusarium virguliforme): 44%; inhibition at 10 ppm (Fusarium virguliforme): 34%
COc1cccc2c(-c3ccccc3)cc(-c3ccc(CC(N)=O)s3)nc12 [Formula Ib-v, 2-(5-(8-methoxy-4-phenylquinolin-2-yl)thiophen-2-yl)acetamide] | 4.21 | – | – | – | – | –
COC(=O)Cc1ccc(-c2cc(-c3ccccc3)c3ccccc3n2)s1 [Formula IId-i, methyl 2-(5-(4-phenylquinolin-2-yl)thiophen-2-yl)acetate] | 12 | 6 | 32 | 16 | 26 | inhibition at 50 ppm [2]: 79%
